Assay results: ChEMBL document CHEMBL1201862, “PubChem BioAssay data set” (2004)
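Method: 48-hour compound exposure of cells in 96-well plates, five concentrations, linear interpolation of endpoints. GI50 is the concentration that inhibits growth by half.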 Calls of active or inactive are those of the source. Cut-off read from the data, not from the text of the source: active = GI50 up to about 1.1 µM and inactive = higher.

Legend:
Test in all cases: growth of human tumour cells (NCI), 48 h
A498 = tested on: A498
RPMI-8226 = tested on: RPMI-8226
Hs-578T = tested on: Hs-578T
NCI-H23 = tested on: NCI-H23
OVCAR-3 = tested on: OVCAR-3
SN12C = tested on: SN12C
SF-268 = tested on: SF-268
HOP-92 = tested on: HOP-92
SK-OV-3 = tested on: SK-OV-3
HOP-62 = tested on: HOP-62
ACHN = tested on: ACHN
HT-29 = tested on: HT-29
NCI-H226 = tested on: NCI-H226
SF-539 = tested on: SF-539
NCI/ADR-RES = tested on: NCI/ADR-RES
MOLT-4 = tested on: MOLT-4
KM12 = tested on: KM12
HL-60 = tested on: HL-60
SR = tested on: SR

SMILES	GI50 (A498)	GI50 (RPMI-8226)	GI50 (Hs-578T)	GI50 (NCI-H23)	GI50 (OVCAR-3)	GI50 (SN12C)	GI50 (SF-268)	GI50 (HOP-92)	GI50 (SK-OV-3)	GI50 (HOP-62)	GI50 (ACHN)	GI50 (HT-29)	GI50 (NCI-H226)	GI50 (SF-539)	GI50 (NCI/ADR-RES)	GI50 (MOLT-4)	GI50 (KM12)	GI50 (HL-60)	GI50 (SR)
O=C(OCc1ccccc1CN1CCOCC1)c1ccc(Br)cc1	> 100 µM (inactive)	22.1 µM (inactive)	69.3 µM (inactive)	39.4 µM (inactive)	31.8 µM (inactive)	76 µM (inactive)	> 100 µM (inactive)	93.1 µM (inactive)	> 100 µM (inactive)	72.3 µM (inactive)	> 100 µM (inactive)	20.5 µM (inactive)	> 100 µM (inactive)	> 100 µM (inactive)	42 µM (inactive)				
C/C=C/CC(C(=O)OCC)(N(C)C(=O)OC(C)(C)C)S(=O)(=O)c1ccc(C)cc1 (configuration not stated)	> 100 µM (inactive)	52.8 µM (inactive)	> 100 µM (inactive)	> 100 µM (inactive)	> 100 µM (inactive)	> 100 µM (inactive)	> 100 µM (inactive)	> 100 µM (inactive)		> 100 µM (inactive)	> 100 µM (inactive)	39.4 µM (inactive)	> 100 µM (inactive)	> 100 µM (inactive)	69.2 µM (inactive)	> 100 µM (inactive)	48.2 µM (inactive)	45.3 µM (inactive)	
O=C(/C=C/c1ccc(Cl)cc1)c1cccs1	23.3 µM (inactive)	3.1 µM (inactive)	36 µM (inactive)	> 10 µM (inactive)		16.5 µM (inactive)	29.7 µM (inactive)		26.4 µM (inactive)	26.5 µM (inactive)	20 µM (inactive)	16.5 µM (inactive)	22.4 µM (inactive)	34.3 µM (inactive)	24.3 µM (inactive)	15.7 µM (inactive)	13.9 µM (inactive)	7.19 µM (inactive)	6.24 µM (inactive)
CCCCC(C#N)(OP1(=O)OC(c2ccccc2)C(C)N1C)c1ccccc1 (configuration not stated)	18.9 µM (inactive)	20.8 µM (inactive)	16.3 µM (inactive)	19.7 µM (inactive)	16.6 µM (inactive)	16.7 µM (inactive)	17.4 µM (inactive)	12.4 µM (inactive)	19.5 µM (inactive)	21.6 µM (inactive)	19 µM (inactive)	18.1 µM (inactive)		15.5 µM (inactive)	20 µM (inactive)	15.7 µM (inactive)	19.6 µM (inactive)	14.4 µM (inactive)	19.9 µM (inactive)
COc1cc2c(cc1OC)-c1[nH]c3ccc([N+](=O)[O-])cc3c1CC(=O)N2	2.98 µM (inactive)	3.6 µM (inactive)	0.2 µM (active)	4.33 µM (inactive)	0.726 µM (active)	2.37 µM (inactive)	0.881 µM (active)		3.15 µM (inactive)	3.1 µM (inactive)	2.32 µM (inactive)	3.83 µM (inactive)	0.78 µM (active)	0.316 µM (active)	> 100 µM (inactive)	1.56 µM (inactive)	0.867 µM (active)	2.94 µM (inactive)	0.278 µM (active)
COc1cc([C@@H]2c3cc4c(cc3[C@@H](/N=C/c3ccc(C(=O)O[C@H]5C[C@H]6OC[C@@]6(OC(C)=O)[C@H]6[C@H](OC(=O)c7ccccc7)[C@]7(O)C[C@H](OC(=O)[C@H](OC(=O)c8ccc(/C=N/[C@@H]9c%10cc%11c(cc%10[C@@H](c%10cc(OC)c(O)c(OC)c%10)[C@H]%10C(=O)OC[C@@H]%109)OCO%11)cc8)[C@@H](NC(=O)c8ccccc8)c8ccccc8)C(C)=C([C@@H](OC(C)=O)C(=O)[C@]56C)C7(C)C)cc3)C3COC(=O)C32)OCO4)cc(C)c1O (some centres not stated)	5.16 µM (inactive)	> 50 µM (inactive)	> 46 µM (inactive)	17.2 µM (inactive)	6.85 µM (inactive)	18.8 µM (inactive)	> 31.5 µM (inactive)		9.2 µM (inactive)	12.7 µM (inactive)	20.8 µM (inactive)	10.9 µM (inactive)	10.9 µM (inactive)	7.23 µM (inactive)	15.2 µM (inactive)	16.3 µM (inactive)	22.3 µM (inactive)	> 13.9 µM (inactive)	8.02 µM (inactive)
CCP(=O)(OC)C1=CCN(C(=O)OCC[Si](C)(C)C)CC1 (configuration not stated)	> 100 µM (inactive)	> 100 µM (inactive)	> 100 µM (inactive)	> 100 µM (inactive)	> 100 µM (inactive)		> 100 µM (inactive)	> 100 µM (inactive)	> 100 µM (inactive)	> 100 µM (inactive)	> 100 µM (inactive)	> 100 µM (inactive)	> 100 µM (inactive)	72.9 µM (inactive)	> 100 µM (inactive)	> 100 µM (inactive)	> 100 µM (inactive)	> 100 µM (inactive)	
CC1=C(\C=C/C(C)=C/C=C/C(C)=C/C=C/C=C(C)\C=C\C=C(C)/C=C/C2=C(C)CCCC2(C)C)C(C)(C)CCC1	> 100 µM (inactive)		88.9 µM (inactive)	34.2 µM (inactive)	> 100 µM (inactive)	> 100 µM (inactive)	> 100 µM (inactive)		> 100 µM (inactive)	> 100 µM (inactive)	> 100 µM (inactive)	56.4 µM (inactive)	> 100 µM (inactive)		> 100 µM (inactive)	> 100 µM (inactive)	39.6 µM (inactive)		
CCCCC(C(=O)N/N=C/c1ccc([N+](=O)[O-])o1)C(=O)N/N=C/c1ccc([N+](=O)[O-])o1	19.8 µM (inactive)	0.682 µM (active)	2.4 µM (inactive)	2.02 µM (inactive)	2.32 µM (inactive)	3.66 µM (inactive)	5.65 µM (inactive)	1.52 µM (inactive)	21.1 µM (inactive)	13.1 µM (inactive)	1.82 µM (inactive)	2.14 µM (inactive)	2.37 µM (inactive)	10.1 µM (inactive)	2.64 µM (inactive)	2.09 µM (inactive)	3.66 µM (inactive)	2.52 µM (inactive)	
Cc1c(-c2ccccc2)[nH]c2cn[nH]c(=O)c12	> 100 µM (inactive)	74 µM (inactive)	74.6 µM (inactive)	> 100 µM (inactive)	39.6 µM (inactive)		> 100 µM (inactive)	> 100 µM (inactive)	42.5 µM (inactive)	50.9 µM (inactive)	> 100 µM (inactive)	> 100 µM (inactive)		> 100 µM (inactive)	73.8 µM (inactive)	83.2 µM (inactive)	83.2 µM (inactive)	10.7 µM (inactive)	88.7 µM (inactive)
CN(C)c1ccc(/C=C2\N=C(c3ccccc3)N(c3nc4ccc(Sc5ccccc5)cc4[nH]3)C2=O)cc1	37.6 µM (inactive)	24.8 µM (inactive)	35.2 µM (inactive)	47.1 µM (inactive)	27.4 µM (inactive)	45.4 µM (inactive)	43.8 µM (inactive)	94.4 µM (inactive)	13.7 µM (inactive)	33.1 µM (inactive)	81.8 µM (inactive)	32.4 µM (inactive)			25.9 µM (inactive)	30.2 µM (inactive)	27.8 µM (inactive)	6.61 µM (inactive)	
Nc1ccc2c(c1)S(=O)(=O)c1cc(O)ccc1O2	31.2 µM (inactive)		> 100 µM (inactive)	> 100 µM (inactive)	> 100 µM (inactive)	> 100 µM (inactive)	> 100 µM (inactive)	> 100 µM (inactive)	> 100 µM (inactive)	> 100 µM (inactive)	> 100 µM (inactive)	> 100 µM (inactive)	> 100 µM (inactive)	> 100 µM (inactive)	> 100 µM (inactive)	> 100 µM (inactive)	> 100 µM (inactive)	> 100 µM (inactive)	39.7 µM (inactive)
COc1ccc(OC)c2sc(N3C(=O)/C(=C/c4ccc(Cl)cc4)N=C3c3ccccc3)nc12	> 100 µM (inactive)	33.7 µM (inactive)	> 100 µM (inactive)	> 100 µM (inactive)	46.3 µM (inactive)	> 100 µM (inactive)	98.9 µM (inactive)	49.5 µM (inactive)	> 100 µM (inactive)	> 100 µM (inactive)	> 100 µM (inactive)	> 100 µM (inactive)		> 100 µM (inactive)	> 100 µM (inactive)	24.7 µM (inactive)	60 µM (inactive)	40.6 µM (inactive)	43.4 µM (inactive)
Cc1ccc(C)n1-c1ccccc1C1SCCCS1	> 100 µM (inactive)	> 100 µM (inactive)	> 100 µM (inactive)	> 100 µM (inactive)	> 100 µM (inactive)	> 100 µM (inactive)	> 100 µM (inactive)	> 100 µM (inactive)	> 100 µM (inactive)	50.8 µM (inactive)	> 100 µM (inactive)	53.3 µM (inactive)	> 100 µM (inactive)	> 100 µM (inactive)	> 100 µM (inactive)	> 100 µM (inactive)	> 100 µM (inactive)	16.9 µM (inactive)	
O=C(/C=C/c1ccc2c(c1)OCO2)Cc1nc2ncccc2[nH]c1=O	> 100 µM (inactive)	> 100 µM (inactive)	36.5 µM (inactive)	> 100 µM (inactive)	> 100 µM (inactive)	> 100 µM (inactive)	49.7 µM (inactive)	> 100 µM (inactive)	98.9 µM (inactive)	39 µM (inactive)	32.2 µM (inactive)	> 100 µM (inactive)		53.7 µM (inactive)	> 100 µM (inactive)	> 100 µM (inactive)	61.1 µM (inactive)	> 100 µM (inactive)	77.1 µM (inactive)
